Species: Rattus norvegicus
Test: DrugMatrix - Regimen: Daily Repeat
Type: toxicity, organism-based, Sprague-Dawley
Design: regimen Daily Repeat, gender Male, age 6-8 weeks
Conditions: in vivo, sc, route subcutaneous, […]; for ABSOLUTE BASOPHIL / ABSOLUTE EOSINOPHIL / ABSOLUTE LYMPHOCYTE / ABSOLUTE MONOCYTE / ABSOLUTE SEGMENTED NEUTROPHIL / BASOPHIL / EOSINOPHIL / ERYTHROCYTE COUNT / HEMATOCRIT / HEMOGLOBIN / LEUKOCYTE COUNT / LYMPHOCYTE / MEAN CORPUSCULAR HEMOGLOBIN / MEAN CORPUSCULAR HEMOGLOBIN CONCENTRATION / MEAN CORPUSCULAR VOLUME / MONOCYTE / NEUTROPHIL / NUCLEATED RED BLOOD CELLS / PLATELET COUNT: tissue Blood; for ALANINE AMINOTRANSFERASE / ALBUMIN / ALKALINE PHOSPHATASE / ASPARTATE AMINOTRANSFERASE / BLOOD UREA NITROGEN / CARBON DIOXIDE / CHLORIDE / CHOLESTEROL / CREATINE PHOSPHOKINASE / CREATININE / GLUCOSE / LACTATE DEHYDROGENASE / LIPASE / PHOSPHORUS / POTASSIUM / SODIUM / TOTAL BILIRUBIN / TOTAL PROTEIN / URIC ACID: tissue Plasma
[1] = 50 mg/kg, 120 h, dose level Low, time 5 day
[2] = 201 mg/kg, 72 h, dose level High, time 3 day
[3] = 201 mg/kg, 120 h, dose level High, time 5 day

SMILES: CCCCOC(=O)c1ccc(N)cc1 [BUTAMBEN]
- ABSOLUTE BASOPHIL [1]: 0 CELLS/uL
- ABSOLUTE EOSINOPHIL [1]: 200.67 CELLS/uL
- ABSOLUTE LYMPHOCYTE [1]: 13363.67 CELLS/uL
- ABSOLUTE MONOCYTE [1]: 123.33 CELLS/uL
- ABSOLUTE SEGMENTED NEUTROPHIL [1]: 2512.33 CELLS/uL
- BASOPHIL [1]: 0%
- EOSINOPHIL [1]: 1.33%
- ERYTHROCYTE COUNT [1]: 5.82 x10E6/uL
- HEMATOCRIT [1]: 36.47%
- HEMOGLOBIN [1]: 13.23 G/DL
- LEUKOCYTE COUNT [1]: 16.2 x10E3/uL
- LYMPHOCYTE [1]: 82.33%
- MEAN CORPUSCULAR HEMOGLOBIN [1]: 22.8 pg
- MEAN CORPUSCULAR HEMOGLOBIN CONCENTRATION [1]: 36.3 G/DL
- MEAN CORPUSCULAR VOLUME [1]: 62.77 fL
- MONOCYTE [1]: 0.67%
- NEUTROPHIL [1]: 15.67%
- NUCLEATED RED BLOOD CELLS [1]: 0 /100WBC
- PLATELET COUNT [1]: 1424.33 x10E3/uL
- ALANINE AMINOTRANSFERASE [1]: 47.67 u/L
- ALBUMIN [1]: 4.3 G/DL
- ALKALINE PHOSPHATASE [1]: 349 u/L
- ASPARTATE AMINOTRANSFERASE [1]: 78.67 u/L
- BLOOD UREA NITROGEN [1]: 19.67 mg/dL
- CARBON DIOXIDE [1]: 23.67 mmol/L
- CHLORIDE [1]: 105.67 MEQ/L
- CHOLESTEROL [1]: 76.67 mg/dL
- CREATINE PHOSPHOKINASE [1]: 340 u/L
- CREATININE [1]: 0.21 mg/dL
- GLUCOSE [1]: 179.67 mg/dL
- LACTATE DEHYDROGENASE [1]: 100.67 u/L
- LIPASE [1]: 8.33 u/L
- PHOSPHORUS [1]: 12.87 mg/dL
- POTASSIUM [1]: 6.56 MEQ/L
- SODIUM [1]: 145.27 MEQ/L
- TOTAL BILIRUBIN [1]: 0.23 mg/dL
- TOTAL PROTEIN [1]: 6.03 G/DL
- URIC ACID [1]: 1.9 mg/dL
- ABSOLUTE BASOPHIL [2]: 0 CELLS/uL
- ABSOLUTE EOSINOPHIL [2]: 70 CELLS/uL
- ABSOLUTE LYMPHOCYTE [2]: 16456 CELLS/uL
- ABSOLUTE MONOCYTE [2]: 124.67 CELLS/uL
- ABSOLUTE SEGMENTED NEUTROPHIL [2]: 2816 CELLS/uL
- BASOPHIL [2]: 0%
- EOSINOPHIL [2]: 0.33%
- ERYTHROCYTE COUNT [2]: 5.58 x10E6/uL
- HEMATOCRIT [2]: 36%
- HEMOGLOBIN [2]: 13.23 G/DL
- LEUKOCYTE COUNT [2]: 19.47 x10E3/uL
- LYMPHOCYTE [2]: 84.67%
- MEAN CORPUSCULAR HEMOGLOBIN [2]: 23.77 pg
- MEAN CORPUSCULAR HEMOGLOBIN CONCENTRATION [2]: 36.8 G/DL
- MEAN CORPUSCULAR VOLUME [2]: 64.57 fL
- MONOCYTE [2]: 0.67%
- NEUTROPHIL [2]: 14.33%
- NUCLEATED RED BLOOD CELLS [2]: 0.67 /100WBC
- PLATELET COUNT [2]: 1165.33 x10E3/uL
- ALANINE AMINOTRANSFERASE [2]: 57 u/L
- ALBUMIN [2]: 4.07 G/DL
- ALKALINE PHOSPHATASE [2]: 412 u/L
- ASPARTATE AMINOTRANSFERASE [2]: 89.67 u/L
- BLOOD UREA NITROGEN [2]: 16.33 mg/dL
- CARBON DIOXIDE [2]: 27.67 mmol/L
- CHLORIDE [2]: 103 MEQ/L
- CHOLESTEROL [2]: 70.67 mg/dL
- CREATINE PHOSPHOKINASE [2]: 345 u/L
- CREATININE [2]: 0.18 mg/dL
- GLUCOSE [2]: 160.33 mg/dL
- LACTATE DEHYDROGENASE [2]: 218 u/L
- LIPASE [2]: 8.33 u/L
- PHOSPHORUS [2]: 12.83 mg/dL
- POTASSIUM [2]: 6.76 MEQ/L
- SODIUM [2]: 143.8 MEQ/L
- TOTAL BILIRUBIN [2]: 0.23 mg/dL
- TOTAL PROTEIN [2]: 5.8 G/DL
- URIC ACID [2]: 1.53 mg/dL
- ABSOLUTE BASOPHIL [3]: 0 CELLS/uL
- ABSOLUTE EOSINOPHIL [3]: 338.33 CELLS/uL
- ABSOLUTE LYMPHOCYTE [3]: 17074 CELLS/uL
- ABSOLUTE MONOCYTE [3]: 209.67 CELLS/uL
- ABSOLUTE SEGMENTED NEUTROPHIL [3]: 3344.67 CELLS/uL
- BASOPHIL [3]: 0%
- EOSINOPHIL [3]: 1.67%
- ERYTHROCYTE COUNT [3]: 5.22 x10E6/uL
- HEMATOCRIT [3]: 33.53%
- HEMOGLOBIN [3]: 12.47 G/DL
- LEUKOCYTE COUNT [3]: 20.97 x10E3/uL
- LYMPHOCYTE [3]: 81.33%
- MEAN CORPUSCULAR HEMOGLOBIN [3]: 23.9 pg
- MEAN CORPUSCULAR HEMOGLOBIN CONCENTRATION [3]: 37.17 G/DL
- MEAN CORPUSCULAR VOLUME [3]: 64.37 fL
- MONOCYTE [3]: 1%
- NEUTROPHIL [3]: 16%
- NUCLEATED RED BLOOD CELLS [3]: 0 /100WBC
- PLATELET COUNT [3]: 1321.67 x10E3/uL
- ALANINE AMINOTRANSFERASE [3]: 47 u/L
- ALBUMIN [3]: 4.17 G/DL
- ALKALINE PHOSPHATASE [3]: 353 u/L
- ASPARTATE AMINOTRANSFERASE [3]: 79.67 u/L
- BLOOD UREA NITROGEN [3]: 18 mg/dL
- CARBON DIOXIDE [3]: 26.67 mmol/L
- CHLORIDE [3]: 104.33 MEQ/L
- CHOLESTEROL [3]: 51 mg/dL
- CREATINE PHOSPHOKINASE [3]: 415 u/L
- CREATININE [3]: 0.21 mg/dL
- GLUCOSE [3]: 163 mg/dL
- LACTATE DEHYDROGENASE [3]: 103 u/L
- LIPASE [3]: 8 u/L
- PHOSPHORUS [3]: 12.37 mg/dL
- POTASSIUM [3]: 6.72 MEQ/L
- SODIUM [3]: 144.47 MEQ/L
- TOTAL BILIRUBIN [3]: 0.37 mg/dL
- TOTAL PROTEIN [3]: 6.07 G/DL
- URIC ACID [3]: 1.93 mg/dL

Reference: ChEMBL document CHEMBL3885881, “DrugMatrix”
